From patent publication US20120244567A1, “HUMAN EMBRYONIC STEM CELLS FOR HIGH THROUGHOUT DRUG SCREENING” (BUCK INSTITUTE FOR RESEARCH ON AGING, priority 2009, published 2012)
Counter-ions that a name gives are not always drawn. Like-named read-outs stand apart in the source and are kept apart here.

Tested on: dopaminergic neurons
Procedure: RNAs isolated from NSCs and neurons with and without drug treatments were hybridized to Illumina HumanRef-8 BeadChip (Illumina, Inc., San Diego, Calif., performed by Microarray core facility at the Burnham Institute for Medical Research). The Illumina array data were normalized by the quantile method, and then transformed log 2 ratio values for a zero mean for expression values of each gene across all samples. The statistical and bioinformatics analyses were conducted by using R and the bioconductor package (www.bioconductor.org). The gene set enrichment analysis was conducted using the GSEA software (www.broad.mit.edu/gsea).

[1] = Amiloride sensitive Na channels, 4 hours of exposure
[2] = Amine transporters, 4 hours of exposure
[3] = Ca activated K channels, 4 hours of exposure
[4] = Calcium channels, 4 hours of exposure
[5] = Cl channels, 4 hours of exposure
[6] = Delayed rectifier K channels, 4 hours of exposure
[7] = H ion transporters, 4 hours of exposure
[8] = Rectifier K channels, 4 hours of exposure
[9] = Voltage gated Na channels, 4 hours of exposure

CCCCc1oc2ccccc2c1C(=O)c1cc(I)c(OCCN(CC)CC)c(I)c1 [Amiodarone Hydrochloride]
ACCN1 gene expression, Treated DA Neuron [1]: 387.4
ACCN2 gene expression, Treated DA Neuron [1]: 862.7
ACCN3 gene expression, Treated DA Neuron [1]: 35.7
SLC1A2 gene expression, Treated DA Neuron [2]: 809.7
SLC1A3 gene expression, Treated DA Neuron [2]: 2926
SLC6A3 gene expression, Treated DA Neuron [2]: 23.4
SLC6A9 gene expression, Treated DA Neuron [2]: 36570.5
SLC6A12 gene expression, Treated DA Neuron [2]: 10.8
ATP1A1 gene expression, Treated DA Neuron (Amine transporters, first line for this gene, 4 hours of exposure): 426.9
ATP1A1 gene expression, Treated DA Neuron (Amine transporters, second line for this gene, 4 hours of exposure): 471
KCNMB1 gene expression, Treated DA Neuron [3]: 44.8
KCNN1 gene expression, Treated DA Neuron [3]: 48.4
KCNN2 gene expression, Treated DA Neuron [3]: 55.6
KCNN3 gene expression, Treated DA Neuron [3]: 181.7
CACNA1A gene expression, Treated DA Neuron [4]: 64.4
CACNA1C gene expression, Treated DA Neuron [4]: 146.9
CACNB2 gene expression, Treated DA Neuron [4]: 155.2
CACNG2 gene expression, Treated DA Neuron [4]: 123.8
CLCN2 gene expression, Treated DA Neuron [5]: 24
CLCN3 gene expression, Treated DA Neuron [5]: 541.2
CLCN6 gene expression, Treated DA Neuron [5]: 998.5
CLCN7 gene expression, Treated DA Neuron [5]: 1261
CLIC1 gene expression, Treated DA Neuron [5]: 22.9
KCNA5 gene expression, Treated DA Neuron [6]: 99.9
KCNB1 gene expression, Treated DA Neuron [6]: 145.4
KCNB2 gene expression, Treated DA Neuron [6]: 94.5
ATP5B gene expression, Treated DA Neuron [7]: 5217.1
ATP6V0A2 gene expression, Treated DA Neuron [7]: 131.3
ATP6V0D1 gene expression, Treated DA Neuron [7]: 2920.7
ATP6V1A gene expression, Treated DA Neuron [7]: 2621.5
ATP6V1B2 gene expression, Treated DA Neuron [7]: 724.8
SLC2A1 gene expression, Treated DA Neuron [7]: 87.1
SLC2A11 gene expression, Treated DA Neuron [7]: .9
SLC35B1 gene expression, Treated DA Neuron [7]: 1450.4
KCNC4 gene expression, Treated DA Neuron [8]: 58.7
KCND2 gene expression, Treated DA Neuron [8]: 269.9
KCNF1 gene expression, Treated DA Neuron [8]: 479.7
KCNG1 gene expression, Treated DA Neuron [8]: 351
KCNJ4 gene expression, Treated DA Neuron [8]: 66.1
KCNJ6 gene expression, Treated DA Neuron [8]: 297.7
KCNJ11 gene expression, Treated DA Neuron [8]: 44.4
KCNQ3 gene expression, Treated DA Neuron [8]: 23.2
KCNQ2 gene expression, Treated DA Neuron (Rectifier K channels, first line for this gene, 4 hours of exposure): 1753.5
KCNQ2 gene expression, Treated DA Neuron (Rectifier K channels, second line for this gene, 4 hours of exposure): 434.4
SCN1A gene expression, Treated DA Neuron [9]: 115.6
SCN3A gene expression, Treated DA Neuron [9]: 60.4
SCN9A gene expression, Treated DA Neuron [9]: 245.7
AFF1 expression, Treated Neuron (four hours after exposure): 1
ARID3A expression, Treated Neuron (four hours after exposure): 201
ASCL2 expression, Treated Neuron (four hours after exposure): 1
DDIT3 expression, Treated Neuron (four hours after exposure): 170
DLX2 expression, Treated Neuron (four hours after exposure): 1
E2F2 expression, Treated Neuron (four hours after exposure): 63.2
E2F7 expression, Treated Neuron (four hours after exposure): 43
E2F8 expression, Treated Neuron (four hours after exposure): 1
EGR1 expression, Treated Neuron (four hours after exposure): 109
EGR2 expression, Treated Neuron (four hours after exposure): 1
ELF4 expression, Treated Neuron (four hours after exposure): 1
ELF5 expression, Treated Neuron (four hours after exposure): 1
ELK3 expression, Treated Neuron (four hours after exposure): 1
ELK4 expression, Treated Neuron (four hours after exposure): 1
EN1 expression, Treated Neuron (four hours after exposure): 1
ERG expression, Treated Neuron (four hours after exposure): 1
ETS1 expression, Treated Neuron (four hours after exposure): 1
ETV1 expression, Treated Neuron (four hours after exposure): 1
ETV4 expression, Treated Neuron (four hours after exposure): 1
FLI1 expression, Treated Neuron (four hours after exposure): 11.3
FOS expression, Treated Neuron (four hours after exposure): 1980
FOSB expression, Treated Neuron (four hours after exposure): 346
FOXA2 expression, Treated Neuron (four hours after exposure): 1
FOXC1 expression, Treated Neuron (four hours after exposure): 32.6
FOXD1 expression, Treated Neuron (four hours after exposure): 1
FOXF2 expression, Treated Neuron (four hours after exposure): 1
FOXL2 expression, Treated Neuron (four hours after exposure): 1
FOXM1 expression, Treated Neuron (four hours after exposure): 27.7
GATA2 expression, Treated Neuron (four hours after exposure): 1
GLI2 expression, Treated Neuron (four hours after exposure): 5.2
HCLS1 expression, Treated Neuron (four hours after exposure): 1
HEY2 expression, Treated Neuron (four hours after exposure): 1
HIRA expression, Treated Neuron (four hours after exposure): 24.2
HMGB2 expression, Treated Neuron (four hours after exposure): 163
HOXA13 expression, Treated Neuron (four hours after exposure): 1
HOXB1 expression, Treated Neuron (four hours after exposure): 1
HOXB2 expression, Treated Neuron (four hours after exposure): 24
HOXB3 expression, Treated Neuron (four hours after exposure): 1
HOXB4 expression, Treated Neuron (four hours after exposure): 1
HOXB5 expression, Treated Neuron (four hours after exposure): 1
HOXD3 expression, Treated Neuron (four hours after exposure): 1
L3MBTL expression, Treated Neuron (four hours after exposure): 97.7
LHX8 expression, Treated Neuron (four hours after exposure): 1
MEF2C expression, Treated Neuron (four hours after exposure): 49.8
MEOX1 expression, Treated Neuron (four hours after exposure): 1
MSX2 expression, Treated Neuron (four hours after exposure): 1
MYEF2 expression, Treated Neuron (four hours after exposure): 25.3
NFATC3 expression, Treated Neuron (four hours after exposure): 1
NFATC4 expression, Treated Neuron (four hours after exposure): 1
NFKB2 expression, Treated Neuron (four hours after exposure): 5.3
NR1D2 expression, Treated Neuron (four hours after exposure): 1
NR2C2 expression, Treated Neuron (four hours after exposure): 5.7
NR4A2 expression, Treated Neuron (four hours after exposure): 212
NRK expression, Treated Neuron (four hours after exposure): 1
PAX8 expression, Treated Neuron (four hours after exposure): 1
PBX2 expression, Treated Neuron (four hours after exposure): 1
PRDM1 expression, Treated Neuron (four hours after exposure): 1
PRRX2 expression, Treated Neuron (four hours after exposure): 1
RELB expression, Treated Neuron (four hours after exposure): 31.9
RUNX1 expression, Treated Neuron (four hours after exposure): 1
SALL1 expression, Treated Neuron (four hours after exposure): 1
SIX4 expression, Treated Neuron (four hours after exposure): 5.7
STAT6 expression, Treated Neuron (four hours after exposure): 1
TAF5L expression, Treated Neuron (four hours after exposure): 17.5
TAF13 expression, Treated Neuron (four hours after exposure): 1
TBX2 expression, Treated Neuron (four hours after exposure): 1
TEAD4 expression, Treated Neuron (four hours after exposure): 1
TEF expression, Treated Neuron (four hours after exposure): 23.5
TGIF1 expression, Treated Neuron (four hours after exposure): 1
TP53 expression, Treated Neuron (four hours after exposure): 23.7
ZNF85 expression, Treated Neuron (four hours after exposure): 5.6
ZNF197 expression, Treated Neuron (four hours after exposure): 5.1
ZNF274 expression, Treated Neuron (four hours after exposure): 1
ZNF367 expression, Treated Neuron (four hours after exposure): 1
ZSCAN29 expression, Treated Neuron (four hours after exposure): 1
